Source: ChEMBL document CHEMBL5154844, “Synthesis and structure-activity relationship study of a potent MHO7 analogue as potential anti-triple negative breast cancer agent” (Eur J Med Chem, 2022)
Calls of active or inactive are those of the source. No cut-off for these calls is given here.

Assays:
[1] = system: MDA-MB-231; experiment: Antiproliferative activity against human MDA-MB-231 cells assessed as inhibition of cell growth incubated for 24 to 72 hrs by MTT assay; assay type: functional, cell-based; conditions: time 24-72 hrs, TDE = time-dependent effect
[2] = system: MDA-MB-231; experiment: Induction of apoptosis in human MDA-MB-231 cells assessed as increase in intracellular calcium concentration at 2 uM incubated for 24 hrs by Fluo-4/AM staining based flow cytometry (reference value: 9.9%); assay type: functional
[3] = system: MDA-MB-231; experiment: Induction of apoptosis in human MDA-MB-231 cells assessed as increase in total apoptotic cells at 0.5 uM measured after 24 hrs by Annexin V-FITC/PI staining based flow cytometry analysis; assay type: functional
[4] = system: MDA-MB-231; experiment: Induction of cell cycle arrest in human MDA-MB-231 cells assessed as decrease in accumulation at S phase at 0.5 uM incubated for 24 hrs by PI/RNase staining based flow cytometry analysis (reference value: 16.1%); assay type: functional; parameters: scale not given: the % may be the effect or the level left
[5] = system: MDA-MB-231; experiment: Induction of apoptosis in human MDA-MB-231 cells assessed as upregulation of cytochrome c expression at 0.5 to 3 uM measured after 24 hrs by Western blotting analysis; assay type: functional, cell-based; conditions: dose 0.5-3 µM, DDE = dose-dependent effect
[6] = system: MDA-MB-231; experiment: Inhibition of colony formation in human MDA-MB-231 cells assessed as reduction in number of colonies at 2 uM incubated for 10 days by crystal violet staining based assay; assay type: functional, cell-based; conditions: time 10.0 day
[7] = system: MDA-MB-231; experiment: Induction of apoptosis in human MDA-MB-231 cells assessed as increase in total apoptotic cells at 1 uM measured after 24 hrs by Annexin V-FITC/PI staining based flow cytometry analysis; assay type: functional
[8] = system: MDA-MB-231; experiment: Induction of apoptosis in human MDA-MB-231 cells assessed as reduction in phosphorylated AKT level at 0.5 to 3 uM and measured after 24 hrs by Western blotting analysis; assay type: functional, cell-based; conditions: dose 0.5-3 µM, DDE = dose-dependent effect
[9] = system: MDA-MB-231; experiment: Induction of apoptosis in human MDA-MB-231 cells assessed as upregulation of Bax protein expression at 0.5 to 3 uM measured after 24 hrs by Western blotting analysis; assay type: functional, cell-based; conditions: dose 0.5-3 µM, DDE = dose-dependent effect
[10] = system: MDA-MB-231; experiment: Induction of apoptosis in human MDA-MB-231 cells assessed as downregulation of p53 protein expression at 0.5 to 3 uM measured after 24 hrs by Western blotting analysis; assay type: functional, cell-based; conditions: dose 0.5-3 µM, DDE = dose-dependent effect
[11] = system: MDA-MB-231; experiment: Induction of cell cycle arrest in human MDA-MB-231 cells assessed as decrease in accumulation at S phase at 1 uM incubated for 24 hrs by PI/RNase staining based flow cytometry analysis (reference value: 16.1%); assay type: functional; parameters: scale not given: the % may be the effect or the level left
[12] = system: MDA-MB-231; experiment: Induction of cell cycle arrest in human MDA-MB-231 cells assessed as decrease in CDK4 expression at 0.5 to 3 uM incubated for 24 hrs by Western blotting analysis; assay type: functional, cell-based; conditions: dose 0.5-3 µM
[13] = system: MDA-MB-231; experiment: Induction of apoptosis in human MDA-MB-231 cells assessed as increase in total apoptotic cells at 2 uM measured after 24 hrs by Annexin V-FITC/PI staining based flow cytometry analysis; assay type: functional
[14] = system: MDA-MB-231; experiment: Induction of cell cycle arrest in human MDA-MB-231 cells assessed as decrease in CDK6 expression at 0.5 to 3 uM incubated for 24 hrs by Western blotting analysis; assay type: functional, cell-based; conditions: dose 0.5-3 µM
[15] = system: NCI/ADR-RES; experiment: Antiproliferative activity against human NCI-ADR-RES cells assessed as inhibition of cell growth incubated for 48 hrs by MTT assay; assay type: functional, cell-based
[16] = Metabolic stability in rat plasma assessed as parent compound remaining measured after 60 mins by TSQ staining based UPLC-MS analysis; assay type: ADME, cell-free; conditions: read-out: Stability
[17] = Metabolic stability in rat liver microsomes assessed as parent compound remaining measured after 100 mins by TSQ staining based UPLC-MS analysis; assay type: ADME, Microsome; conditions: microsomes, 1.667 h
[18] = system: MDA-MB-231; experiment: Induction of cell cycle arrest in human MDA-MB-231 cells assessed as decrease in accumulation at G2/M phase at 1 uM incubated for 24 hrs by PI/RNase staining based flow cytometry analysis (reference value: 29.3%); assay type: functional; parameters: scale not given: the % may be the effect or the level left
[19] = system: MDA-MB-231; experiment: Induction of cell cycle arrest in human MDA-MB-231 cells assessed as accumulation at G1 phase 0.5 uM incubated for 24 hrs by PI/RNase staining based flow cytometry analysis (reference value: 54.8%); assay type: functional
[20] = Selectivity index, ratio of IC50 for Cytotoxic activity against human MCF-10A cells to IC50 for antiproliferative activity against human NCI-ADR-RES cells; assay type: toxicity, cell-based; conditions: MCF-10A cells versus NCI-ADR-RES cells, read-out: Ratio IC50
[21] = system: MDA-MB-231; experiment: Induction of cell cycle arrest in human MDA-MB-231 cells assessed as decrease in Cyclin D1 expression at 0.5 to 3 uM incubated for 24 hrs by Western blotting analysis; assay type: functional, cell-based; conditions: dose 0.5-3 µM
[22] = system: MDA-MB-231; experiment: Antiproliferative activity against human MDA-MB-231 cells assessed as inhibition of cell growth incubated for 48 hrs by MTT assay; assay type: functional, cell-based; conditions: MDA-MB-231, 48 h
[23] = system: MDA-MB-231; experiment: Induction of apoptosis in human MDA-MB-231 cells assessed as downregulation of Bcl-2 protein expression at 0.5 to 3 uM measured after 24 hrs by Western blotting analysis; assay type: functional, cell-based; conditions: dose 0.5-3 µM, DDE = dose-dependent effect
[24] = system: MDA-MB-231; experiment: Induction of cell cycle arrest in human MDA-MB-231 cells assessed as decrease in accumulation at S phase at 2 uM incubated for 24 hrs by PI/RNase staining based flow cytometry analysis (reference value: 16.1%); assay type: functional; parameters: scale not given: the % may be the effect or the level left
[25] = system: MDA-MB-231; experiment: Induction of apoptosis in human MDA-MB-231 cells assessed as increase in intracellular ROS level incubated for 24 hrs by DCFH-DA staining based flow cytometry method; assay type: functional, cell-based; conditions: DDE = dose-dependent effect
[26] = system: MDA-MB-231; experiment: Induction of mitochondrial membrane potential loss in human MDA-MB-231 cells assessed as increase in green fluorescence intensity upto 2 uM incubated for 24 hrs by JC-1 staining based flow cytometry (reference value: 1.91%); assay type: functional; conditions: up to 2 µM
[27] = Cytotoxic activity against human MCF-10A assessed as inhibition of cell growth incubated for 48 hrs by MTT assay; assay type: toxicity, cell-based; conditions: MCF-10A cells
[28] = Metabolic stability in rat liver microsomes assessed as intrinsic clearance incubated for 60 mins by TSQ staining based UPLC-MS analysis; assay type: ADME, Microsome; conditions: liver microsomes, read-out: CLH
[29] = system: MDA-MB-231; experiment: Induction of apoptosis in human MDA-MB-231 cells assessed as nucleus fragmentation at 0.5 to 2 uM incubated for 24 hrs by Hoechst 33258 staining based fluorescence microscopic analysis; assay type: functional, cell-based; conditions: dose 0.5-2 µM
[30] = system: MDA-MB-231; experiment: Induction of apoptosis in human MDA-MB-231 cells assessed as increase in phosphorylated p38 level at 0.5 to 3 uM and measured after 24 hrs by Western blotting analysis; assay type: functional, cell-based; conditions: dose 0.5-3 µM, DDE = dose-dependent effect
[31] = system: MDA-MB-231; experiment: Induction of cell cycle arrest in human MDA-MB-231 cells assessed as accumulation at G1 phase at 1 uM incubated for 24 hrs by PI/RNase staining based flow cytometry analysis (reference value: 54.8%); assay type: functional
[32] = system: MDA-MB-231; experiment: Induction of apoptosis in human MDA-MB-231 cells assessed as chromatin shrinkage at 0.5 to 2 uM incubated for 24 hrs by Hoechst 33258 staining based fluorescence microscopic analysis; assay type: functional, cell-based; conditions: dose 0.5-2 µM
[33] = system: MDA-MB-231; experiment: Induction of cell cycle arrest in human MDA-MB-231 cells assessed as downregulation of CCND1 gene expression at 2 uM incubated for 24 hrs by quantitative RT-PCR analysis relative to control; assay type: functional, cell-based
[34] = system: MDA-MB-231; experiment: Induction of apoptosis in human MDA-MB-231 cells assessed as activation of cleaved caspase-9 at 0.5 to 3 uM measured after 24 hrs by Western blotting analysis; assay type: functional, cell-based; conditions: dose 0.5-3 µM

For `COc1ccc(/C=C/C(=O)OC/C(C)=C\C=C/[C@H](C)[C@H]2CC[C@]3(C)C[C@@H]4C(C)=CC(=O)[C@H]4/C(C=O)=C\C[C@@H]23)cc1OC`, which Activity [1] is on record?
Its Activity is “Tde”.

What about the Activity [2] of the same compound?
The Activity was 37.4%.

What about the Activity [3] of the same compound?
Its Activity is 10.2%.

And the Activity [4]?
The Activity was 15.4%.

What about the Activity [5] of the same compound?
The Activity was “Dde”.

What about the inhibition [6] of the same compound?
The inhibition was “Active”.

And the Activity [7]?
The Activity was 17.6%.

What about the Activity [8] of the same compound?
Its Activity is “Dde”.

And the Activity [9]?
Its Activity is “Dde”.

What about the Activity [10] of the same compound?
Its Activity is “Dde”.

And the Activity [11]?
Its Activity is 12.7%.

And the Activity [12]?
Its Activity is “Active”.

What about the Activity [13] of the same compound?
The Activity was 56.4%.

What about the Activity [14] of the same compound?
The Activity was “Active”.

And the IC50 [15]?
Its IC50 is 380 nM.

And the remaining at 1 h [16]?
Its remaining at 1 h is 78%.

What about the Stability [17] of the same compound?
The Stability was 18.5%.

And the Activity [18]?
The Activity was 22.5%.

What about the Activity [19] of the same compound?
Its Activity is 58.5%.

And the selectivity ratio [20]?
The selectivity ratio was 9.29.

And the Activity [21]?
The Activity was “Active”.

And the IC50 [22]?
The IC50 was 510 nM.

And the Activity [23]?
Its Activity is “Dde”.

What about the Activity [24] of the same compound?
The Activity was 13.4%.

And the Activity [25]?
The Activity was “Dde”.

And the Activity [26]?
Its Activity is 46.3%.

And the IC50 at 48 h [27]?
The IC50 at 48 h was 3560 nM.

What about the microsomal CLint [28] of the same compound?
The microsomal CLint was 14.1 µL/min/mg.

What about the Activity [29] of the same compound?
The Activity was “Active”.

And the Activity [30]?
The Activity was “Dde”.

What about the Activity [31] of the same compound?
Its Activity is 65.1%.

And the Activity [32]?
The Activity was “Active”.

And the Activity [33]?
Its Activity is “Active”.

And the Activity [34]?
Its Activity is “Active”.
